For experiment [1], the target named is T1, CDK2/Cyclin E2 (Homo sapiens, UniProt P24941).
T1 construct: Recombinant protein complex CDK2/Cyclin E2, expressed from insect cell, was purchased from ProQinase
Briefly: CDK2/CyclinE2 Enzymatic Activity Assay (TR-FRET). The class given is biochemical. To be noted: ATP 1 mM final, read-out: CDK2_E1 IC50. Summed up:
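Recombinant insect-cell CDK2/Cyclin E2 (1 nM) phosphorylated ULight-4E-BP1 (50 nM) with 1 mM ATP in HEPES pH 7.4 buffer, after 20 min compound preincubation; MgCl2 (10 mM) started the 45 min reaction at 37° C. Europium anti-phospho-4E-BP1 TR-FRET read; 9-dose IC50 by 4-parameter fit.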

Experiment [2] addresses T2, CDK4/Cyclin D1 (Homo sapiens, UniProt P11802).
T2 construct: purchased ProQinase; host or cells: insect cell
Put plainly: CDK4/CyclinD1 Enzymatic Activity Assay (TR-FRET). To be noted: ATP 2 mM final, read-out: CDK4_D1 IC50. The class given is biochemical. The method, then:
CDK4/CyclinD1 Enzymatic Activity Assay
The inhibitory activity of compounds was evaluated in vitro using TR-FRET assay with white 384-well low volume microplate (Greiner Bio-One). CDK4/Cyclin D1 catalyzed phosphorylation of peptide in the presence and absence of compounds was measured and used in IC50 determination. Recombinant protein complex CDK4/Cyclin D1, expressed from insect cell, was purchased from ProQinase. Testing compounds were dissolved in DMSO at 1 mM and tested in 9-dose IC50 mode. The reaction mixture was prepared by mixing CDK4/CyclinD1 (1 nM final), ULight-4E-BP1 (100 nM final, Perkinelmer, TRF0128-D), and ATP (2 mM final) in assay buffer (20 mM of HEPES pH 7.4, 1 mM of EGTA, 0.05% BSA, 0.005% Tween 20, and 1 mM TCEP). The compound of interest in DMSO was added to each well in 3-fold serial dilution by the dispenser (TECAN D300E) to make a 9.9 μL of reaction mixture. After 20 minutes preincubation at room temperature, 0.1 μL MgCl2 (10 mM final) was added to initiate the reaction. Following a 45-minute incubation at 37° C., the reaction was stopped by addition of 2 μL of quenching buffer consisting of Lance detection buffer (Perkinelmer CR97-100C), LANCE Ultra Europium-anti-P-4E-BP1 (Perkinelmer, TRF0216-D), EDTA, and incubated at room temperature for additional 60 minutes in dark. The reaction signal was measured by Envision multimode plate reader (PerkinElmer, 2102-0010). IC50 values were determined by fitting the data to the standard 4 parameters with Hill Slope using GraphPad Prism software.
In general terms: In TR-FRET formats the signal depends on donor and acceptor labels being close together.

Experiment [3] has as its system OVCAR3 p-RB. Briefly: pRB ICW Assay in OVCAR3 Cells. The class given is cell-based. To be noted: Homo sapiens, OVCAR-3, incubated with compound for 2 hours. Summed up:
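In-Cell Western on OVCAR3: phospho-RB antibody signal with DRAQ5 counterstain read at 700 and 800 nm after fixation. Compounds were applied for 2 h at 37° C. as 9-point ½-log dilutions in duplicate; 10 μM reference compound defined full inhibition.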

Structures are written as SMILES.

T2 sequence (P11802 whole entry): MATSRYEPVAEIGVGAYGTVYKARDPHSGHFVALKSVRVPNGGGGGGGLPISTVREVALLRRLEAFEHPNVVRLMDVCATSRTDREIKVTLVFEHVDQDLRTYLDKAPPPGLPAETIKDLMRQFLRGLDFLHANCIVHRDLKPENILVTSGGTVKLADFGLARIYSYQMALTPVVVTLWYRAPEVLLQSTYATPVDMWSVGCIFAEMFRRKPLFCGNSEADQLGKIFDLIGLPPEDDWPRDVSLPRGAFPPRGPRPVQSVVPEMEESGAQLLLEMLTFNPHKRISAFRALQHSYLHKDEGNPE
T2 sequence (P24385 whole entry partner): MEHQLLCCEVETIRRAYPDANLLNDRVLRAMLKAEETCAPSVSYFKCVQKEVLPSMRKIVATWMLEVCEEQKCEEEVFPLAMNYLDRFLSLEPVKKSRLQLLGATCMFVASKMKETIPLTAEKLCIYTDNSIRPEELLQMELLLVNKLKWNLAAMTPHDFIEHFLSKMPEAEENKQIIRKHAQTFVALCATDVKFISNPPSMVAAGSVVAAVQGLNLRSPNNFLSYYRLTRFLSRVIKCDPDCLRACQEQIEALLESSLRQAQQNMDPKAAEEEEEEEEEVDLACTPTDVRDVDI

Usually IC50 stands for the concentration that gives 50% inhibition. Consider `Cc1sc(-c2nc(N[C@H]3CCN(S(=O)(=O)c4cnn(C)c4)C[C@H]3F)ncc2C(F)(F)F)cc1C(N)=O` [Example 15, 5-(2-(((3R,4S)-3-fluoro-1-((1-methyl-1H-pyrazol-4-yl)sulfonyl)piperidin-4-yl)amino)-5-(trifluoromethyl)pyrimidin-4-yl)-2-methylthiophene-3-carboxamide], for which the IC50 in experiment [1], in experiment [2] and in experiment [3] was no more than 0.1 µM throughout.
Take `Cc1cc(-c2nc(NC3CCN(S(C)(=O)=O)CC3)ncc2C(F)(F)F)sn1` [Example 78, 4-(3-methylisothiazol-5-yl)-N-(1-(methylsulfonyl)piperidin-4-yl)-5-(trifluoromethyl)pyrimidin-2-amine]: the figures for the IC50 in experiment [1], in experiment [2] and in experiment [3] were 0.1 to 0.5 µM, greater than 0.5 µM and greater than 0.5 µM, respectively.
Regarding `Cc1sc(-c2nc(N[C@H]3CCN(S(=O)(=O)c4cn(C)cn4)C[C@H]3C)ncc2C(F)(F)F)cc1C(N)=O` [Example 24, 2-methyl-5-(2-(((3R,4S)-3-methyl-1-((1-methyl-1H-imidazol-4-yl)sulfonyl)piperidin-4-yl)amino)-5-(trifluoromethyl)pyrimidin-4-yl)thiophene-3-carboxamide], the IC50 in experiment [1], in experiment [2] and in experiment [3] was no more than 0.1 µM throughout.
For the molecule `CC(O)c1sc(-c2nc(N[C@@H]3CCN(S(=O)(=O)c4cnn(C)c4)C[C@H]3F)ncc2C(F)(F)F)cc1C#N` (stereo partly drawn) [Example 36, 5-(2-(((3R,4R)-3-fluoro-1-((1-methyl-1H-pyrazol-4-yl)sulfonyl)piperidin-4-yl)amino)-5-(trifluoromethyl)pyrimidin-4-yl)-2-(1-hydroxyethyl)thiophene-3-carbonitrile], the IC50 in experiment [1], in experiment [2] and in experiment [3] was no more than 0.1 µM throughout.
As for `C[C@@H]1CN(S(=O)(=O)c2cn(C)cn2)CC[C@@H]1Nc1ncc(C(F)(F)F)c(-c2cc(C#N)c(CC(C)(C)O)s2)n1` [Example 40, 2-(2-hydroxy-2-methylpropyl)-5-(2-(((3R,4S)-3-methyl-1-((1-methyl-1H-imidazol-4-yl)sulfonyl)piperidin-4-yl)amino)-5-(trifluoromethyl)pyrimidin-4-yl)thiophene-3-carbonitrile], the IC50 is no more than 0.1 µM in experiment [1], 0.1 to 0.5 µM in experiment [2] and 0.1 to 0.5 µM in experiment [3].
Turning to `C[C@@H]1CN(S(C)(=O)=O)CC[C@@H]1Nc1ncc(C(F)(F)F)c(-c2ncc(CC(C)(C)O)s2)n1` [Example 131, 2-methyl-1-(2-(2-(((3R,4S)-3-methyl-1-(methylsulfonyl)piperidin-4-yl)amino)-5-(trifluoromethyl)pyrimidin-4-yl)thiazol-5-yl)propan-2-ol], the IC50 in experiment [1] was no more than 0.1 µM; in experiment [2] it was 0.1 to 0.5 µM; in experiment [3], greater than 0.5 µM.
In the same order, the values of `Cn1cc(S(=O)(=O)N2CC[C@H](Nc3ncc(C(F)(F)F)c(-c4cc(C(N)=O)cs4)n3)[C@H](F)C2)cn1` [Example 11, 5-(2-(((3R,4S)-3-fluoro-1-((1-methyl-1H-pyrazol-4-yl)sulfonyl)piperidin-4-yl)amino)-5-(trifluoromethyl)pyrimidin-4-yl)thiophene-3-carboxamide] are no more than 0.1 µM, no more than 0.1 µM and no more than 0.1 µM.
On the same counts, the results for `CC(O)c1sc(-c2nc(N[C@H]3CCN(S(=O)(=O)c4c[nH]cn4)C[C@H]3C)ncc2C(F)(F)F)cc1C#N` (stereo partly drawn) [Example 68, 5-(2-(((3R,4S)-1-((1H-imidazol-4-yl)sulfonyl)-3-methylpiperidin-4-yl)amino)-5-(trifluoromethyl)pyrimidin-4-yl)-2-(1-hydroxyethyl)thiophene-3-carbonitrile] are no more than 0.1 µM, 0.1 to 0.5 µM and 0.1 to 0.5 µM.
Regarding `Cc1sc(-c2nc(N[C@H]3CCN(S(=O)(=O)c4cn(C)cn4)C[C@H]3C)ncc2C(F)(F)F)cc1C#N` [Example 53, 2-methyl-5-(2-(((3R,4S)-3-methyl-1-((1-methyl-1H-imidazol-4-yl)sulfonyl)piperidin-4-yl)amino)-5-(trifluoromethyl)pyrimidin-4-yl)thiophene-3-carbonitrile], the IC50 in experiment [1] is no more than 0.1 µM; in experiment [2], 0.1 to 0.5 µM; in experiment [3], greater than 0.5 µM.
On the same counts, the results for `COc1cc(-c2nc(NC3CCN(S(=O)(=O)c4cn(C)cn4)CC3)ncc2C(F)(F)F)sc1C` [Example 75, 4-(4-methoxy-5-methylthiophen-2-yl)-N-(1-((1-methyl-1H-imidazol-4-yl)sulfonyl)piperidin-4-yl)-5-(trifluoromethyl)pyrimidin-2-amine] are no more than 0.1 µM, greater than 0.5 µM and greater than 0.5 µM.
On to `Cc1cnc(-c2nc(N[C@H]3CCN(S(=O)(=O)c4cn(C)cn4)C[C@H]3C)ncc2C(F)(F)F)s1` [Example 64, N-((3R,4S)-3-methyl-1-((1-methyl-1H-imidazol-4-yl)sulfonyl)piperidin-4-yl)-4-(5-methylthiazol-2-yl)-5-(trifluoromethyl)pyrimidin-2-amine], for which the IC50 in experiment [1] is no more than 0.1 µM; in experiment [2], 0.1 to 0.5 µM; in experiment [3], greater than 0.5 µM.
In the same order, the values of `CC(O)c1sc(-c2nc(N[C@H]3CCN(S(=O)(=O)c4cn(C)cn4)C[C@H]3F)ncc2C(F)(F)F)cc1C#N` (stereo partly drawn) [Example 35, 5-(2-(((3R,4S)-3-fluoro-1-((1-methyl-1H-imidazol-4-yl)sulfonyl)piperidin-4-yl)amino)-5-(trifluoromethyl)pyrimidin-4-yl)-2-(1-hydroxyethyl)thiophene-3-carbonitrile] are no more than 0.1 µM, no more than 0.1 µM and no more than 0.1 µM.
Take `C[C@@H]1CN(S(=O)(=O)c2cnn(C)c2)CC[C@@H]1Nc1ncc(C(F)(F)F)c(-c2cc(C#N)c(CC(C)(C)O)s2)n1` [Example 38, 2-(2-hydroxy-2-methylpropyl)-5-(2-(((3R,4S)-3-methyl-1-((1-methyl-1H-pyrazol-4-yl)sulfonyl)piperidin-4-yl)amino)-5-(trifluoromethyl)pyrimidin-4-yl)thiophene-3-carbonitrile]: the IC50 in experiment [1] is no more than 0.1 µM; in experiment [2], 0.1 to 0.5 µM; in experiment [3], 0.1 to 0.5 µM.
`C[C@@H]1CN(S(=O)(=O)c2cnn(C)c2)CC[C@@H]1Nc1ncc(C(F)(F)F)c(-c2cc(C(N)=O)c(CC(C)(C)O)s2)n1` [Example 44, 2-(2-hydroxy-2-methylpropyl)-5-(2-(((3R,4S)-3-methyl-1-((1-methyl-1H-pyrazol-4-yl)sulfonyl)piperidin-4-yl)amino)-5-(trifluoromethyl)pyrimidin-4-yl)thiophene-3-carboxamide]: the IC50 in experiment [1], in experiment [2] and in experiment [3] was no more than 0.1 µM in each case.
With `Cc1sc(-c2nc(N[C@H]3CCN(S(C)(=O)=O)C[C@H]3C)ncc2C(F)(F)F)cc1C#N` [Example 54, 2-methyl-5-(2-(((3R,4S)-3-methyl-1-(methylsulfonyl)piperidin-4-yl)amino)-5-(trifluoromethyl)pyrimidin-4-yl)thiophene-3-carbonitrile], the results for the IC50 in experiment [1], in experiment [2] and in experiment [3] were no more than 0.1 µM, greater than 0.5 µM and greater than 0.5 µM, respectively.
On to `Cc1sc(-c2nc(N[C@H]3CCN(S(=O)(=O)c4cn(C)cn4)C[C@H]3F)ncc2C(F)(F)F)cc1C(N)=O` [Example 16, 5-(2-(((3R,4S)-3-fluoro-1-((1-methyl-1H-imidazol-4-yl)sulfonyl)piperidin-4-yl)amino)-5-(trifluoromethyl)pyrimidin-4-yl)-2-methylthiophene-3-carboxamide], for which the IC50 in experiment [1], in experiment [2] and in experiment [3] was no more than 0.1 µM in each case.
`Cc1cc(-c2nc(NC3CCN(S(=O)(=O)c4cnn(C)c4)CC3)ncc2C(F)(F)F)sn1` [Example 77, N-(1-((1-methyl-1H-pyrazol-4-yl)sulfonyl)piperidin-4-yl)-4-(3-methylisothiazol-5-yl)-5-(trifluoromethyl)pyrimidin-2-amine]: the IC50 in experiment [1] was no more than 0.1 µM; in experiment [2] it was greater than 0.5 µM; in experiment [3] it was greater than 0.5 µM.
`Cn1cc(S(=O)(=O)N2CCC(Nc3ncc(C(F)(F)F)c(-c4cc(C(N)=O)cs4)n3)CC2)cn1` [Example 74, 5-(2-((1-((1-methyl-1H-pyrazol-4-yl)sulfonyl)piperidin-4-yl)amino)-5-(trifluoromethyl)pyrimidin-4-yl)thiophene-3-carboxamide]: the IC50 in experiment [1], in experiment [2] and in experiment [3] was no more than 0.1 µM each time.

The values above are taken from patent US20240150340A1, “CDK Inhibitors And Their Use As Pharmaceuticals” (Prelude Therapeutics Incorporated, priority 2022, published 2024).
